The record followed here is US7781580B2, “Stilbene derivatives as new cancer therapeutic agents” (Virginia Commonwealth University, priority 2007, dated 2010).

For one test, the system named is MDA-MB231 cells. The test is described as follows: immunofluorescent staining of tubulin, MDA-MB231. The following applies: CA4 10 nM, stilbene 4a 100 nM, vincristine 100 nM, 5b 3 μM; 16 hours. Type of test: cell-based. The source says:
Nuclei were stained with 4′,6-diamidino-2-phenylindole (DAPI). Control cells show the reticular pattern of the microtubule network.

The next test relates to Chk1−/− cells. The test can be described thus: cell cycle analysis, Chk1-/- MDA-MB231 derivative. The format is cell-based. On the procedure:
Due to the structural similarity between stilbene 4a and CA4, we investigated the difference in the biological activity of these two compounds in MDA-MB231 breast cancer cells and their Chk2−/− derivatives. […] MDA-MB231 cells were treated with 10 nM stilbene 4a or 1 nM CA4. […] However, a difference in cell cycle change was observed following treatment with 30 nM of stilbene 4a versus 3 nM of CA4. […] This was also the case for cells treated with 100 nM stilbene 4a. A significant subG1/0 population was also noted. […] One possible effect could be a DNA damage response, which is a common mechanism of multiple chemotherapeutic agents but not one of pure microtubule-interfering agents such a paclitaxel or vincristine. […] We then obtained conditional Chk1−/− and Chk2−/− cells, which were derived from the same MDA-MB231 cells for the same flow cytometry analysis. […] In contrast, Chk2−/− cells were more sensitive to stilbene 4a. […] This mechanism is not obvious in higher drug concentrations at which the G2 arrest from microtubule interference is dominant. Therefore, in addition to their microtubule interfering effect, stilbenes have another mechanism to induce cell death. Thus, the use of a Chk2 inhibitor in combination with stilbenes may be a viable approach to enhancing the beneficial therapeutic effects of stilbenes.

As to `COc1cc(/C=C\c2ccc(OC)c(N)c2)cc(OC)c1` [4a, (Z)-5-[2-(3,5-Dimethoxy-phenyl)-vinyl]-2-methoxy-phenylamine], the microtubule pattern result in the test on MDA-MB231 cells is recorded as “did not completely disrupt microtubule formation”. Besides, the “sensitivity versus MDA-MB231” value in the test on Chk1−/− cells is given as “more resistant”.
